Experimental data published in patent US7528138B2, “Pyrazolo[1,5-a]pyrimidines useful as inhibitors of protein kinases” (Vertex Pharmaceuticals Incorporated, priority 2004, dated 2009).

How the values were obtained:
Assay type in all cases: biochemical
c-Met = c-Met (Homo sapiens, UniProt P08581); test: c-Met Inhibition Assay, coupled enzyme system; details: enzyme inhibition data (Ki), Table 11
Method: Compounds are screened for their ability to inhibit c-Met kinase activity using a standard coupled enzyme system (Fox et al., Protein Sci. 1998, 7, 2249). Reactions are carried out in a solution containing 100 mM HEPES (pH 7.5), 10 mM MgCl2, 25 mM NaCl, 300 μM NADH, 1 mM DTT, and 1.5% DMSO. Final substrate concentrations in the assay are 200 μM ATP (Sigma Chemicals, St Louis, Mo.) and 10 μM polyGluTyr (Sigma Chemical Company, St. Louis). Reactions are carried out at 30° C. and 80 nM c-Met. Final concentrations of the components of the coupled enzyme system are 2.5 mM phosphoenolpyruvate, 300 μM NADH, 30 μg/ml pyruvate kinase and 10 μg/ml lactate dehydrogenase.
An assay stock buffer solution is prepared containing all of the reagents listed above with the exception of ATP and a test compound of the present invention. The assay stock buffer solution (175 μl) is incubated in a 96 well plate with 5 μl of the test compound of the present invention at final concentrations spanning 0.006 μM to 12.5 μM at 30° C. for 10 minutes. Typically, a 12-point titration is conducted by preparing serial dilutions (from 10 mM compound stocks) with DMSO of the test compounds of the present invention in daughter plates. The reaction is initiated by the addition of 20 μl of ATP (final concentration 200 μM). Rates of reaction are obtained using a Molecular Devices Spectramax plate reader (Sunnyvale, Calif.) over 10 minutes at 30° C. The Ki values are determined from the rate data as a function of inhibitor concentration.

JAK3 = target: T1, JAK3 (Homo sapiens, UniProt P52333); test: JAK3 Inhibition Assay, 33P incorporation; details: enzyme inhibition data (Ki), Table 11
T1 sequence (P52333 1-1124): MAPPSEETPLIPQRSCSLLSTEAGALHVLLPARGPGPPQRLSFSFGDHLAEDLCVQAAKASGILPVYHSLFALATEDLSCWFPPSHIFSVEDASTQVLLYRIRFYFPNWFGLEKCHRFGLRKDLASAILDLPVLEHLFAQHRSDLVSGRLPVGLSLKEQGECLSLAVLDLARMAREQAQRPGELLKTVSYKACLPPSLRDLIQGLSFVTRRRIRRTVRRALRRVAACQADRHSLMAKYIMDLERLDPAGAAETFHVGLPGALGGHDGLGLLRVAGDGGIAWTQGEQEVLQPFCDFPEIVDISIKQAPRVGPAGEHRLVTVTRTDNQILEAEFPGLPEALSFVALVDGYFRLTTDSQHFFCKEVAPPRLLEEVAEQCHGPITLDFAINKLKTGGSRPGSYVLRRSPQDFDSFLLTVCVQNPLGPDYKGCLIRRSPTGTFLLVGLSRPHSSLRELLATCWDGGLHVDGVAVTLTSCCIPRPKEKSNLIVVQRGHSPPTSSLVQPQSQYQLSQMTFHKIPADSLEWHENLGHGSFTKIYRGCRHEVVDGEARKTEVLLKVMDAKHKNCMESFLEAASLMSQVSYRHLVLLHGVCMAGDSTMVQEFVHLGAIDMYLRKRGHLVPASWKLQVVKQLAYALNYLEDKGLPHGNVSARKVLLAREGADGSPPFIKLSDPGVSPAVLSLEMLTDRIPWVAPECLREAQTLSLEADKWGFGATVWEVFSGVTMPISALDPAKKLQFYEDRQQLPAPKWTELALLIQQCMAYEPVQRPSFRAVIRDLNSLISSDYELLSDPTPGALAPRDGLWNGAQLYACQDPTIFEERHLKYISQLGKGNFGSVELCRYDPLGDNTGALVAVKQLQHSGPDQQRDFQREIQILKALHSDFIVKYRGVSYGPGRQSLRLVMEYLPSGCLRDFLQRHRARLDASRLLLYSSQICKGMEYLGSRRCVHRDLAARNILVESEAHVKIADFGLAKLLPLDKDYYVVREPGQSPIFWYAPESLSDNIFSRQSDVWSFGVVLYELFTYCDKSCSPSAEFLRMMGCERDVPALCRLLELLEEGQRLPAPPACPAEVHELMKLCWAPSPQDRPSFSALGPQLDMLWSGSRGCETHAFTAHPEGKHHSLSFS
Method: Reactions are carried out in a kinase buffer containing 100 mM HEPES (pH 7.4), 1 mM DTT, 10 mM MgCl2, 25 mM NaCl, and 0.01% BSA. Substrate concentrations in the assay are 5 μM ATP (200 uCi/μmole ATP) and 1 μM poly(Glu)4Tyr. Reactions are carried out at 25° C. and 1 nM JAK3. To each well of a 96 well polycarbonate plate is added 1.5 μl of a candidate JAK3 inhibitor along with 50 μl of kinase buffer containing 2 μM poly(Glu)4Tyr and 10 μM ATP. This is then mixed and 50 μl of kinase buffer containing 2 nM JAK3 enzyme is added to start the reaction. After 20 minutes at room temperature (25 C), the reaction is stopped with 50 μl of 20% trichloroacetic acid (TCA) that also contained 0.4 mM ATP. The entire contents of each well are then transferred to a 96 well glass fiber filter plate using a TomTek Cell Harvester. After washing, 60 μl of scintillation fluid is added and ^33P incorporation detected on a Perkin Elmer TopCount.

Itk = target: T2, Itk (Homo sapiens, UniProt Q08881); test: ITK Inhibition Assay (Radiometric), radioactive-phosphate incorporation; details: enzyme inhibition data (Ki), Table 11; radiometric or UV assay not stated
T2 sequence (Q08881 1-620): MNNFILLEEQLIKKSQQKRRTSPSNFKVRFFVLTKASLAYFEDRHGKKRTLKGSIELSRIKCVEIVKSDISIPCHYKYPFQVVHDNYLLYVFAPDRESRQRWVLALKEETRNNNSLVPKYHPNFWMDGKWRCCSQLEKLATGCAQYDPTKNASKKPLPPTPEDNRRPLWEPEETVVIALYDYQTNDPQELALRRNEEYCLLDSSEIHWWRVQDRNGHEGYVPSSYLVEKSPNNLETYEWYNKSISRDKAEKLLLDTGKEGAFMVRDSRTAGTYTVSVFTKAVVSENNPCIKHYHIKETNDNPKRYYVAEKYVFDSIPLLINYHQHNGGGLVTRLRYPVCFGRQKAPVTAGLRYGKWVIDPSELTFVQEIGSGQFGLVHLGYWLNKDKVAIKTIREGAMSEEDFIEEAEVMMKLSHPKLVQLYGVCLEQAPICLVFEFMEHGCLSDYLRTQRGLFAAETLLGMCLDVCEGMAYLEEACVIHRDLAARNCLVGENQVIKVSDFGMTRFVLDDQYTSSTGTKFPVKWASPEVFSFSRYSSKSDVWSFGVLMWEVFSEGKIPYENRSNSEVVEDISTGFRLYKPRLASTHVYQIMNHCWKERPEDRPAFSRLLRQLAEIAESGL
Method: Assays are carried out in a mixture of 20 mM MOPS (pH 7.0), 10 mM MgCl2, 0.1% BSA and 1 mM DTT. Final substrate concentrations in the assay are 7.5 μM [γ-33P]ATP (400 mCi 33P ATP/mmol ATP, Amersham Pharmacia Biotech/Sigma Chemicals) and 3 μM peptide (SAM68 protein D332-443). Assays are carried out at 25° C. in the presence of 50 nM Itk. An assay stock buffer solution is prepared containing all of the reagents listed above, with the exception of ATP and the test compound of interest. 50 μL of the stock solution is placed in a 96 well plate followed by addition of 2 μL of DMSO stock containing serial dilutions of the test compound (typically starting from a final concentration of 50 μM with 2-fold serial dilutions) in duplicate (final DMSO concentration 2%). The plate is pre-incubated for 10 minutes at 25° C. and the reaction initiated by addition of 50 μL [γ-33P]ATP (final concentration 7.5 μM).
The reaction is stopped after 10 minutes by the addition of […] 0.2M phosphoric acid+0.01% TWEEN 20. A multiscreen phosphocellulose filter 96-well plate (Millipore, Cat no. MAPHN0B50) is pretreated with 100 μL 0.2M phosphoric acid +0.01% TWEEN 20 prior to the addition of […] of the stopped assay mixture. The plate is washed with 4×200 μL 0.2M phosphoric acid+0.01% TWEEN 20. After drying, 30 μL Optiphase ‘SuperMix’ liquid scintillation cocktail (Perkin Elmer) is added to the well prior to scintillation counting (1450 Microbeta Liquid Scintillation Counter, Wallac).
Ki(app) data are calculated from non-linear regression analysis of the initial rate data using the Prism software package (GraphPad Prism version 3.0cx for Macintosh, GraphPad Software, San Diego Calif., USA).

Sequence of c-Met (P08581 25-1390): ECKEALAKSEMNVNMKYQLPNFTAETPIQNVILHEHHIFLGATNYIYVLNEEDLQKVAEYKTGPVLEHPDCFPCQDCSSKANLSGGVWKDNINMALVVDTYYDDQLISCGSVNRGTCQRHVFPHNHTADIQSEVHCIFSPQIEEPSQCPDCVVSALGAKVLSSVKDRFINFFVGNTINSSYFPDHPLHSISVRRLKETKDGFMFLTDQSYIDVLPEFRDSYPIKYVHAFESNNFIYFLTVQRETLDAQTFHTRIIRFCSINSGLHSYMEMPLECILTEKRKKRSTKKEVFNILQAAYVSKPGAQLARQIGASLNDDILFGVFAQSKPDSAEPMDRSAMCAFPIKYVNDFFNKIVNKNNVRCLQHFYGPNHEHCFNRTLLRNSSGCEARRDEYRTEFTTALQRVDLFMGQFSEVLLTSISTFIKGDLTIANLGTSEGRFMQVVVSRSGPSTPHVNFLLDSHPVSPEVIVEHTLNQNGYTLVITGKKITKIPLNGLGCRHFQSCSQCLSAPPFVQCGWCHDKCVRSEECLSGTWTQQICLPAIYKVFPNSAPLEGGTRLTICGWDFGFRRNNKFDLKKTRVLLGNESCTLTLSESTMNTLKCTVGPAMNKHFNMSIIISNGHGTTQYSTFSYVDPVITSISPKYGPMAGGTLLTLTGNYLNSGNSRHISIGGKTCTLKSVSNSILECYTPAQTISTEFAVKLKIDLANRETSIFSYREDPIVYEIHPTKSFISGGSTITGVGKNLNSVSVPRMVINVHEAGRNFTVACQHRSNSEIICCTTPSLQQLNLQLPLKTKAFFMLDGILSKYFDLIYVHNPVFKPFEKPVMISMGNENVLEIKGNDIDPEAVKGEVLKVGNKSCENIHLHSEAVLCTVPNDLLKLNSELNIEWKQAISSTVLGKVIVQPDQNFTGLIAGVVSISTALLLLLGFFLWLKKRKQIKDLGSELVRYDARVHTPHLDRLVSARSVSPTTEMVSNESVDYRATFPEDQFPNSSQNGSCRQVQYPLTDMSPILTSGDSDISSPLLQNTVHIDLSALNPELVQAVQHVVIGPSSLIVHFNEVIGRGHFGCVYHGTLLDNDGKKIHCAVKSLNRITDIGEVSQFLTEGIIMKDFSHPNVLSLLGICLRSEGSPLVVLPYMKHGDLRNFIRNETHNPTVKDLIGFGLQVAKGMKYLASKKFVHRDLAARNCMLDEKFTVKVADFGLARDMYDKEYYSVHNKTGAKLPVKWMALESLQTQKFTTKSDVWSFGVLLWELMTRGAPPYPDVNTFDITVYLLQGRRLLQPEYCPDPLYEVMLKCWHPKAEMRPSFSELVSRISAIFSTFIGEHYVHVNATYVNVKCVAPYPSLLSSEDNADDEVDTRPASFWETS

Compound	Ki (c-Met) [µM]	Ki (JAK3) [µM]	Ki (Itk) [µM]
Nc1nn2cc(-c3ccccc3[N+](=O)[O-])cnc2c1-c1ccccn1 [Compound V-21]	0.5 to 5	> 5	0.5 to 5
CCOC(=O)c1c(N)nn2cc(-c3cnccn3)cnc12 [Compound V-26]	0.5 to 5	> 5	0.5 to 5
CC(C)NCCCc1cnc2c(-c3ccccn3)c(N)nn2c1 [Compound V-327]	0.5 to 5	> 5	0.5 to 5
CN(CCN)C(=O)c1cccc(-c2cnc3c(-c4ccccn4)c(N)nn3c2)n1 [Compound V-120]	< 0.5	0.5 to 5	< 0.5
CC(C)(C)OC(=O)N1CCC(CNC(=O)c2cnc3c(-c4ccccn4)c(N)nn3c2)CC1 [Compound V-201]	0.5 to 5	> 5	0.5 to 5
Cc1cnc2c(-c3cc(NC4CC5CCC4C5)ncn3)c(N)nn2c1 (stereo not drawn) [Compound V-333]	< 0.5	0.5 to 5	< 0.5
COC(=O)C1CCN(c2ncccc2-c2cnc3c(-c4ccccn4)c(N)nn3c2)CC1 [Compound V-260]	0.5 to 5	> 5	0.5 to 5
COC(=O)C1CCCN1C(=O)c1ccc(-c2cnc3c(-c4ccccn4)c(N)nn3c2)nc1 (stereo not drawn) [Compound V-66]	< 0.5	0.5 to 5	0.5 to 5
COC[C@H](C)Nc1cc(-c2c(N)nn3cc(C)cnc23)ncn1 [Compound V-292]	< 0.5	0.5 to 5	0.5 to 5
CCN1CCN(CCCc2cnc3c(-c4ccccn4)c(N)nn3c2)CC1 [Compound V-315]	0.5 to 5	> 5	0.5 to 5
CN(C)CCCc1cnc2c(-c3ccccn3)c(N)nn2c1 [Compound V-316]	0.5 to 5	> 5	0.5 to 5
Cc1cnc2c(-c3cc(NC4CCN(C)CC4)ncn3)c(N)nn2c1 [Compound V-284]	< 0.5	0.5 to 5	0.5 to 5
Cc1cnc2c(-c3cc(NC4CCNC4)ncn3)c(N)nn2c1 (stereo not drawn) [Compound V-337]	< 0.5	< 0.5	< 0.5
Nc1nn2cc(-c3ccnc(N4CCC(N5CCCC5)CC4)c3)cnc2c1-c1ccccn1 [Compound V-256]	0.5 to 5	> 5	0.5 to 5
COc1cccc(OC)c1-c1cnc2c(-c3ccccn3)c(N)nn2c1 [Compound V-3]	0.5 to 5	> 5	0.5 to 5
CC(=O)N1CCN(c2ccc(-c3cnc4c(-c5ccccn5)c(N)nn4c3)cn2)CC1 [Compound V-149]	< 0.5	0.5 to 5	0.5 to 5
CN(Cc1cccnc1)c1cc(-c2cnc3c(-c4ccccn4)c(N)nn3c2)ccn1 [Compound V-252]	0.5 to 5	> 5	0.5 to 5
Nc1nn2cc(-c3ccncn3)cnc2c1C(=O)N1CCC[C@H]1CO [Compound V-39]	0.5 to 5	> 5	0.5 to 5
Cc1cnc2c(-c3cc(N4CCCC4c4ccc(F)cc4)ncn3)c(N)nn2c1 (stereo not drawn) [Compound V-307]	< 0.5	0.5 to 5	0.5 to 5
Nc1nn2cc(-c3ccnc(N4CCN(c5cnccn5)CC4)c3)cnc2c1-c1ccccn1 [Compound V-255]	0.5 to 5	> 5	0.5 to 5
CCOC(=O)C1CCCN(CCCc2cnc3c(-c4ccccn4)c(N)nn3c2)C1 (stereo not drawn) [Compound V-330]	0.5 to 5	> 5	0.5 to 5
CCN(CCO)C(=O)c1ccc(-c2cnc3c(-c4ccccn4)c(N)nn3c2)nc1 [Compound V-99]	< 0.5	0.5 to 5	< 0.5
Nc1nn2cc(-c3cccnc3N3CC[C@H](CN4CCCC4)C3)cnc2c1-c1ccccn1 [Compound V-261]	0.5 to 5	> 5	0.5 to 5
CN(C)CCNc1cc(-c2cnc3c(-c4ccccn4)c(N)nn3c2)ccn1 [Compound V-246]	< 0.5	> 5	0.5 to 5
CCN(Cc1ccncc1)C(=O)c1c(N)nn2cc(-c3ccncn3)cnc12 [Compound V-36]	0.5 to 5	> 5	0.5 to 5
CCOC(=O)c1c(N)nn2cc(CCCOC(C)=O)cnc12 [Compound V-48]	0.5 to 5	> 5	0.5 to 5
